{"source": "patent US7271170B2", "about": "“Imidazo-pyrimidines and triazolo-pyrimidines: benzodiazepine receptor ligands” (Neurogen Corporation, priority 2003, dated 2007)", "biological_target": "benzodiazepine site of the GABAA receptor", "experiment": "Ligand binding assay of Example 6 (3H-Ro15-1788 competition, purified rat cortical membranes)", "conditions": "for pKi: ligand binding assay of Example 6, Table 5 Ki", "note": "pKd, pKi: −log10 of the molar value."}
{"smiles": "CCCc1c(Cn2ccnc2-c2ncccc2F)ncn2nc(C3CCCO3)nc12", "note": "(stereo not shown) [Compound 254, 7-{[2-(3-fluoropyridin-2-yl)-1H-imidazol-1-yl]methyl}-8-propyl-2-(tetrahydrofuran-2-yl)[1,2,4]triazolo[1,5-c]pyrimidine]", "values": [{"measurement": "pKi", "value": "> 6.00"}]}
{"smiles": "CCCc1c(Cn2ccnc2-c2ncccc2F)ncn2nc(COCC(F)(F)F)nc12", "note": "[Compound 255, 7-{[2-(3-fluoropyridin-2-yl)-1H-imidazol-1-yl]methyl}-8-propyl-2-[(2,2,2-trifluoroethoxy)methyl][1,2,4]triazolo[1,5-c]pyrimidine]", "values": [{"measurement": "pKi", "value": "> 6.00"}]}
{"smiles": "CCCc1c(Cn2ccnc2-c2ncccc2F)ncn2nc(Cl)nc12", "note": "[Compound 256, 2-chloro-7-{[2-(3-fluoropyridin-2-yl)-1H-imidazol-1-yl]methyl}-8-propyl[1,2,4]triazolo[1,5-c]pyrimidine]", "values": [{"measurement": "pKi", "value": "> 6.00"}]}
{"smiles": "CCCc1c(Cn2ccnc2-c2ncccc2F)ncn2nc(CC(F)(F)F)nc12", "note": "[Compound 257, 7-{[2-(3-fluoropyridin-2-yl)-1H-imidazol-1-yl]methyl}-8-propyl-2-(2,2,2-trifluoroethyl)[1,2,4]triazolo[1,5-c]pyrimidine]", "values": [{"measurement": "pKi", "value": "> 6.00"}]}
{"smiles": "CCCc1c(Cn2ccnc2-c2ncccc2F)ncn2nc(-c3nccs3)nc12", "note": "[Compound 258, 7-{[2-(3-fluoropyridin-2-yl)-1H-imidazol-1-yl]methyl}-8-propyl-2-(1,3-thiazol-2-yl)[1,2,4]triazolo[1,5-c]pyrimidine]", "values": [{"measurement": "pKi", "value": "> 6.00"}]}
{"smiles": "CCCc1c(Cn2ccnc2-c2ncccc2F)ncn2nc(N(CCC)CCC)nc12", "note": "[Compound 259, 7-{[2-(3-fluoropyridin-2-yl)-1H-imidazol-1-yl]methyl}-N,N,8-tripropyl[1,2,4]triazolo[1,5-c]pyrimidin-2-amine]", "values": [{"measurement": "pKi", "value": "> 6.00"}]}
{"smiles": "CCCc1c(Cn2ccnc2-c2cccc(C#N)n2)ncn2nc(COCC)nc12", "note": "[Compound 260, 6-(1-{[2-(ethoxymethyl)-8-propyl[1,2,4]triazolo[1,5-c]pyrimidin-7-yl]methyl}-1H-imidazol-2-yl)pyridine-2-carbonitrile]", "values": [{"measurement": "pKi", "value": "> 6.00"}]}
{"smiles": "CCCc1c(Cn2ccnc2-c2ncccc2F)ncn2nc(COCC)nc12", "note": "[Compound 261, 2-(ethoxymethyl)-7-{[2-(3-fluoropyridin-2-yl)-1H-imidazol-1-yl]methyl}-8-propyl[1,2,4]triazolo[1,5-c]pyrimidine]", "values": [{"measurement": "pKi", "value": "> 6.00"}]}
{"smiles": "CCCc1c(Cn2ccnc2-c2cccc(C#N)n2)ncn2nc(C)nc12", "note": "[Compound 262, 6-{1-[(2-methyl-8-propyl[1,2,4]triazolo[1,5-c]pyrimidin-7-yl]methyl]-1H-imidazol-2-yl}pyridine-2-carbonitrile]", "values": [{"measurement": "pKi", "value": "> 6.00"}]}
{"smiles": "CCCc1c(Cn2ccnc2-c2ncccc2F)ncn2nc(COC(C)C)nc12", "note": "[Compound 263, 7-{[2-(3-fluoropyridin-2-yl)-1H-imidazol-1-yl]methyl}-2-(isopropoxymethyl)-8-propyl[1,2,4]triazolo[1,5-c]pyrimidine]", "values": [{"measurement": "pKi", "value": "> 6.00"}]}
{"smiles": "CCCc1c(Cn2ccnc2-c2cccc(C#N)n2)ncn2nc(COC(C)C)nc12", "note": "[Compound 264, 6-(1-{[2-(isopropoxymethyl)-8-propyl[1,2,4]triazolo[1,5-c]pyrimidin-7-yl]methyl}-1H-imidazol-2-yl)pyridine-2-carbonitrile]", "values": [{"measurement": "pKi", "value": "> 6.00"}]}
{"smiles": "CCCc1c(Cn2ccnc2-c2ncccc2F)ncn2nc(COC3CCCC3)nc12", "note": "[Compound 265, 2-[(cyclopentyloxy)methyl]-7-{[2-(3-fluoropyridin-2-yl)-1H-imidazol-1-yl]methyl}-8-propyl[1,2,4]triazolo[1,5-c]pyrimidine]", "values": [{"measurement": "pKi", "value": "> 6.00"}]}
{"smiles": "CCOC(=O)c1ncn2c1CN(C)C(=O)c1cc(F)ccc1-2", "note": "[^3H-Ro15-1788, reference compound]", "values": [{"measurement": "pKd", "setting": "radioligand, previously determined, used in Cheng-Prusoff equation, read-out: Kd, binding dissociation constant of 3H-Ro15-1788", "value": 9.00}]}
